In ChEMBL document CHEMBL1201862, “PubChem BioAssay data set” (2004):
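Where inhibition never reached the appropriate level, the endpoint shown equals the highest concentration tested. Otherwise, values were interpolated linearly from a five-concentration, 48-hour dose response in 96-well plates. Abbreviation: GI50, concentration required for 50% inhibition of growth.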 The source made the active and inactive calls. No stated cut-off is given here; in the data, active = GI50 up to about 1.1 µM and inactive = higher.

Legend:
Assay in all cases: inhibition of tumour cell growth, NCI panel, 48 h
MDA-MB-435 = system: MDA-MB-435
HOP-92 = system: HOP-92
SK-MEL-5 = system: SK-MEL-5
NCI-H23 = system: NCI-H23
DU-145 = system: DU-145
UACC-62 = system: UACC-62
SF-268 = system: SF-268
Hs-578T = system: Hs-578T
ACHN = system: ACHN
NCI-H460 = system: NCI-H460
HCT-116 = system: HCT-116
OVCAR-5 = system: OVCAR-5
CAKI-1 = system: CAKI-1
SN12C = system: SN12C
A498 = system: A498
OVCAR-8 = system: OVCAR-8
BT-549 = system: BT-549
MDA-N = system: MDA-N
SK-MEL-2 = system: SK-MEL-2
T47D = system: T47D
OVCAR-3 = system: OVCAR-3
COLO 205 = system: COLO 205
SF-295 = system: SF-295
RPMI-8226 = system: RPMI-8226
EKVX = system: EKVX
HCT-15 = system: HCT-15
K562 = system: K562
IGROV-1 = system: IGROV-1
UACC-257 = system: UACC-257
SR = system: SR
UO-31 = system: UO-31
SW-620 = system: SW-620
SF-539 = system: SF-539
PC-3 = system: PC-3
786-0 = system: 786-0
MOLT-4 = system: MOLT-4
SK-MEL-28 = system: SK-MEL-28
A549 = system: A549
HT-29 = system: HT-29
HL-60 = system: HL-60
SNB-19 = system: SNB-19
NCI/ADR-RES = system: NCI/ADR-RES
HOP-62 = system: HOP-62
TK-10 = system: TK-10
LOX IMVI = system: LOX IMVI
U-251 = system: U-251
SK-OV-3 = system: SK-OV-3
RXF 393 = system: RXF 393
Malme-3M = system: Malme-3M
MCF7 = system: MCF7
CCRF-CEM = system: CCRF-CEM
M14 = system: M14
SNB-75 = system: SNB-75
HCC 2998 = system: HCC 2998
KM12 = system: KM12
NCI-H522 = system: NCI-H522
MDA-MB-231 = system: MDA-MB-231
OVCAR-4 = system: OVCAR-4
NCI-H226 = system: NCI-H226

Measured: GI50

CCOC(=O)C(c1c[nH]c2ccccc12)(c1c[nH]c2ccccc12)c1c[nH]c2ccccc12
34700 nM: HCT-15
inactive: MDA-MB-435 18700 nM | HOP-92 37000 nM | SK-MEL-5 34400 nM | NCI-H23 70800 nM | DU-145 39800 nM | UACC-62 25900 nM | SF-268 32800 nM | Hs-578T 23700 nM | ACHN 37100 nM | NCI-H460 27300 nM | HCT-116 29200 nM | OVCAR-5 55000 nM | CAKI-1 29400 nM | SN12C 43000 nM | A498 35200 nM | OVCAR-8 36200 nM | BT-549 44400 nM | MDA-N 31900 nM | SK-MEL-2 18800 nM | T47D 16200 nM | OVCAR-3 27500 nM | COLO 205 15700 nM | SF-295 30400 nM | RPMI-8226 11700 nM | EKVX 37700 nM | K562 12900 nM | IGROV-1 33300 nM | UACC-257 34000 nM | SR 23600 nM | UO-31 30300 nM | SW-620 19800 nM | SF-539 42400 nM | PC-3 19700 nM | 786-0 44500 nM | MOLT-4 5870 nM | SK-MEL-28 33700 nM | A549 30700 nM | HT-29 34400 nM | HL-60 15900 nM | SNB-19 26500 nM | NCI/ADR-RES 82600 nM | HOP-62 39600 nM | TK-10 41300 nM | LOX IMVI 31900 nM | U-251 36900 nM | SK-OV-3 30100 nM | RXF 393 21700 nM | Malme-3M 30400 nM | MCF7 19700 nM | CCRF-CEM 17200 nM | M14 28300 nM | SNB-75 20400 nM | HCC 2998 17100 nM | KM12 28500 nM | NCI-H522 27000 nM | MDA-MB-231 36800 nM

O=C/C(=C(/Br)I)c1ccccc1
active: K562 624 nM | SR 448 nM | MOLT-4 597 nM | HL-60 352 nM | CCRF-CEM 248 nM
inactive: MDA-MB-435 2560 nM | HOP-92 2280 nM | SK-MEL-5 7060 nM | NCI-H23 5110 nM | DU-145 15700 nM | UACC-62 6700 nM | SF-268 2300 nM | Hs-578T 9590 nM | ACHN 3100 nM | NCI-H460 8990 nM | HCT-116 1510 nM | OVCAR-5 9860 nM | CAKI-1 2140 nM | SN12C 1900 nM | A498 18600 nM | OVCAR-8 2830 nM | BT-549 2420 nM | MDA-N 2540 nM | SK-MEL-2 3420 nM | T47D 1860 nM | OVCAR-3 2740 nM | COLO 205 3910 nM | SF-295 5770 nM | RPMI-8226 2250 nM | EKVX 15300 nM | IGROV-1 4410 nM | UACC-257 5690 nM | UO-31 4970 nM | SW-620 1150 nM | OVCAR-4 3860 nM | SF-539 2530 nM | PC-3 6350 nM | 786-0 2540 nM | SK-MEL-28 1630 nM | A549 22900 nM | HT-29 2290 nM | NCI-H226 9640 nM | SNB-19 13600 nM | NCI/ADR-RES 3950 nM | HOP-62 15700 nM | TK-10 6120 nM | LOX IMVI 3810 nM | U-251 4100 nM | SK-OV-3 14500 nM | RXF 393 2710 nM | Malme-3M 1920 nM | MCF7 1300 nM | M14 1800 nM | SNB-75 5450 nM | KM12 6610 nM | NCI-H522 1780 nM | MDA-MB-231 2560 nM
2240 nM: HCT-15

O=[N+]([O-])C1=Cc2cc(Cl)ccc2OC1c1cccc2ccccc12 (stereo not drawn)
inactive: MDA-MB-435 1440 nM | HOP-92 1340 nM | SK-MEL-5 1260 nM | DU-145 1910 nM | UACC-62 1570 nM | SF-268 1260 nM | ACHN 1520 nM | NCI-H460 1700 nM | OVCAR-5 1990 nM | A498 1860 nM | SK-MEL-2 1360 nM | SF-295 2380 nM | EKVX 1270 nM | UACC-257 1340 nM | UO-31 1260 nM | OVCAR-4 1570 nM | SK-MEL-28 1340 nM | A549 1700 nM | HL-60 3830 nM | NCI-H226 1620 nM | SNB-19 1650 nM | NCI/ADR-RES 2070 nM | TK-10 1270 nM | U-251 1560 nM | SK-OV-3 1610 nM | Malme-3M 1570 nM | M14 1230 nM | KM12 1790 nM | NCI-H522 1270 nM | MDA-MB-231 1770 nM
370 nM: HCT-15
active: NCI-H23 847 nM | Hs-578T 692 nM | HCT-116 187 nM | CAKI-1 366 nM | SN12C 723 nM | OVCAR-8 614 nM | BT-549 436 nM | MDA-N 1000 nM | T47D 442 nM | OVCAR-3 603 nM | COLO 205 719 nM | RPMI-8226 317 nM | K562 371 nM | IGROV-1 625 nM | SR 224 nM | SW-620 149 nM | PC-3 635 nM | 786-0 396 nM | MOLT-4 251 nM | HT-29 637 nM | HOP-62 871 nM | LOX IMVI 290 nM | RXF 393 405 nM | MCF7 521 nM | CCRF-CEM 191 nM | SNB-75 600 nM | HCC 2998 984 nM
